Source: paper PMC3783652 (ACS chemical biology, 2013)
Marks after values point to notes of the source that are not given here. No end group written: not given here.

How the values were obtained:
CXCL12_1 = CXCL12_1 (Homo sapiens, UniProt P48061, I79C/L76C); test: 2D 1H-15N HSQC NMR titration of CXCR4 peptides into CXCL12_1; type: binding; settings: ΔG = −RT ln Kd @ 298 K
CXCL12_2 = CXCL12_2 (Homo sapiens, UniProt P48061, A86C/L57C); test: 2D 1H-15N HSQC NMR titration of CXCR4 peptides into CXCL12_2; type: binding; settings: ΔG = −RT ln Kd @ 298 K
CXCL12WT = CXCL12WT (Homo sapiens, UniProt P48061); settings: ΔG = −RT ln Kd @ 298 K, calculated from Veldkamp et al.; cited from earlier work
[1] = molecular target: CXCL12WT self-association; settings: in 100 mM sodium phosphate; cited from earlier work

| ΔG (CXCL12_1) [kcal/mol] | ΔG (CXCL12_2) [kcal/mol] | Substance | ΔG (CXCL12WT) | Kd of self-association [1] [µM] |
| --- | --- | --- | --- | --- |
| -7.43 | -8.24 | GMMEGISIYTSDNYTEEMGSGDYDSMKEPCFREENANFNK [CXCR4_1–38] | −7.29 ^* kcal mol^−1 | – |
| – | – | CXCL12WT: wild type chemokine CXCL12 (stromal cell-derived factor-1/SDF-1) | – | 140 |
